Here are results for ten compounds from patent US20230212120A1, “SMALL MOLECULE INHIBITORS OF GRK5 AND GRK5 SUBFAMILY MEMBERS AND USES THEREOF” (The Regents of the University of Michigan, priority 2020, published 2023).

“And” between values parts separate entries of the source, which are not always exact repeats. Identical values can stand only once. “Also recorded” adds a separate entry of the source. Like-named read-outs stand apart in the source and are kept apart here.

What is called IC50 is the midpoint of a concentration-inhibition curve. One may read the inhibition as the drop in the measured response relative to a control, in per cent. In general, solubility (thermodynamic) refers to solubility found after equilibrating the solid with the medium.

Data set [1] has as its target T1, GRK5 (Homo sapiens, UniProt P34947). Nature of the data set: radiometric GRK5 inhibition assay (tubulin phosphorylation).
Target sequence in this assay (P34947 whole entry): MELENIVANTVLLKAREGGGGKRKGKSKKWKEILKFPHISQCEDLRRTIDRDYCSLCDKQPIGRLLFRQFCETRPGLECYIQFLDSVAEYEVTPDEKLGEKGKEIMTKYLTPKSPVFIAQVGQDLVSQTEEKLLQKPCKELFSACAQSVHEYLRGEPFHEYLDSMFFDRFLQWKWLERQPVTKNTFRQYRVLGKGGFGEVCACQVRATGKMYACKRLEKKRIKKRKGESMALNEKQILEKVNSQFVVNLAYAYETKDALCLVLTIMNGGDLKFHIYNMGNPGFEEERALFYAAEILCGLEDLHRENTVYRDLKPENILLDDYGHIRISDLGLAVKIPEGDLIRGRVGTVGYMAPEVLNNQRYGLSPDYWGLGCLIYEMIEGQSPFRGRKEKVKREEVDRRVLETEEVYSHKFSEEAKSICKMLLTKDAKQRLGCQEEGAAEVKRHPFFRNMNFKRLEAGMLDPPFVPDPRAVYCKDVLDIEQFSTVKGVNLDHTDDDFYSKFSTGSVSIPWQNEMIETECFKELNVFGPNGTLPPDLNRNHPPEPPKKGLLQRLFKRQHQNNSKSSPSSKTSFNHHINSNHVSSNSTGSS
The target in a further data set is T2, bovine GRK2 (Bos taurus, UniProt P21146).
T2 sequence (P21146 1-689): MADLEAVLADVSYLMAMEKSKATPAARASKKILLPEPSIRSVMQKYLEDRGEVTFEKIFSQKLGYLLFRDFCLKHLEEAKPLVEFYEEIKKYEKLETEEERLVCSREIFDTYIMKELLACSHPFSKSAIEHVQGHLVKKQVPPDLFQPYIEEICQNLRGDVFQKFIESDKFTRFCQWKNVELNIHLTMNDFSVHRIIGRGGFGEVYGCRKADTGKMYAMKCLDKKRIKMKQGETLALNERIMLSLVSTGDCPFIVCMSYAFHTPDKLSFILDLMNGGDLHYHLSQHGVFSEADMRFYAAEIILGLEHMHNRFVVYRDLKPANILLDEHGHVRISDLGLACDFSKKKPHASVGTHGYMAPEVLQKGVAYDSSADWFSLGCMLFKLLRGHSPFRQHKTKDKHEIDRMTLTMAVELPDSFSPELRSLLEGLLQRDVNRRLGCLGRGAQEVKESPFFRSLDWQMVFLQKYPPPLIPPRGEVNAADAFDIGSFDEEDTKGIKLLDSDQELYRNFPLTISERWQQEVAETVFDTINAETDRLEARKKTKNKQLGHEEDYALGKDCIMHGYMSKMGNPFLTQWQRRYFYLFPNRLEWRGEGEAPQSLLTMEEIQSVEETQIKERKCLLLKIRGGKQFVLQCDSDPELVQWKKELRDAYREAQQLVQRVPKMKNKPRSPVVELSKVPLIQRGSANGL
Nature of the data set: radiometric GRK2 inhibition assay (tubulin phosphorylation).

The subject of the next data set is FGFR1/2. Nature of the data set: Kinome panel, FGFR1/2. The class given is biochemical. The conditions noted are these: tested at 1 μM.
Another data set deals with GRK6 (Homo sapiens, UniProt P43250). Nature of the data set: Kinome panel, GRK6. The following applies: tested at 1 μM. The class given is biochemical.
GRK6, sequence (P43250 whole entry, species assumed): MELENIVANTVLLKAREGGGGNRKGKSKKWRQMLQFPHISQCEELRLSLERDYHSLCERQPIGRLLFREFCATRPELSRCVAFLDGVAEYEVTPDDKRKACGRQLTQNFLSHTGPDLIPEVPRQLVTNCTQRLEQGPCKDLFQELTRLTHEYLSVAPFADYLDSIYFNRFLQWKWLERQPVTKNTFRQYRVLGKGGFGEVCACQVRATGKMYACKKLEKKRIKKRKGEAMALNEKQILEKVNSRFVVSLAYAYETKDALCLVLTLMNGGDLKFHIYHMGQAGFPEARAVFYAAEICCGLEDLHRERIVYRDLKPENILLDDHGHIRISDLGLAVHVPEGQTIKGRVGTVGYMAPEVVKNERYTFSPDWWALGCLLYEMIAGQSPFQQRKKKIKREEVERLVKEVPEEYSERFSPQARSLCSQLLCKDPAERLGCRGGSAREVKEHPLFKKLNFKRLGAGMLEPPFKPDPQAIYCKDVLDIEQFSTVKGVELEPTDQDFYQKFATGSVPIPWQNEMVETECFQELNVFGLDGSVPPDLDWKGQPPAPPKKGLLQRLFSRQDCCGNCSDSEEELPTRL
The target in a further data set is EGFR (Homo sapiens, UniProt P00533). Nature of the data set: Kinome panel, EGFR. The class given is biochemical. The following applies: tested at 1 μM.
EGFR, sequence (P00533 25-1210, species assumed): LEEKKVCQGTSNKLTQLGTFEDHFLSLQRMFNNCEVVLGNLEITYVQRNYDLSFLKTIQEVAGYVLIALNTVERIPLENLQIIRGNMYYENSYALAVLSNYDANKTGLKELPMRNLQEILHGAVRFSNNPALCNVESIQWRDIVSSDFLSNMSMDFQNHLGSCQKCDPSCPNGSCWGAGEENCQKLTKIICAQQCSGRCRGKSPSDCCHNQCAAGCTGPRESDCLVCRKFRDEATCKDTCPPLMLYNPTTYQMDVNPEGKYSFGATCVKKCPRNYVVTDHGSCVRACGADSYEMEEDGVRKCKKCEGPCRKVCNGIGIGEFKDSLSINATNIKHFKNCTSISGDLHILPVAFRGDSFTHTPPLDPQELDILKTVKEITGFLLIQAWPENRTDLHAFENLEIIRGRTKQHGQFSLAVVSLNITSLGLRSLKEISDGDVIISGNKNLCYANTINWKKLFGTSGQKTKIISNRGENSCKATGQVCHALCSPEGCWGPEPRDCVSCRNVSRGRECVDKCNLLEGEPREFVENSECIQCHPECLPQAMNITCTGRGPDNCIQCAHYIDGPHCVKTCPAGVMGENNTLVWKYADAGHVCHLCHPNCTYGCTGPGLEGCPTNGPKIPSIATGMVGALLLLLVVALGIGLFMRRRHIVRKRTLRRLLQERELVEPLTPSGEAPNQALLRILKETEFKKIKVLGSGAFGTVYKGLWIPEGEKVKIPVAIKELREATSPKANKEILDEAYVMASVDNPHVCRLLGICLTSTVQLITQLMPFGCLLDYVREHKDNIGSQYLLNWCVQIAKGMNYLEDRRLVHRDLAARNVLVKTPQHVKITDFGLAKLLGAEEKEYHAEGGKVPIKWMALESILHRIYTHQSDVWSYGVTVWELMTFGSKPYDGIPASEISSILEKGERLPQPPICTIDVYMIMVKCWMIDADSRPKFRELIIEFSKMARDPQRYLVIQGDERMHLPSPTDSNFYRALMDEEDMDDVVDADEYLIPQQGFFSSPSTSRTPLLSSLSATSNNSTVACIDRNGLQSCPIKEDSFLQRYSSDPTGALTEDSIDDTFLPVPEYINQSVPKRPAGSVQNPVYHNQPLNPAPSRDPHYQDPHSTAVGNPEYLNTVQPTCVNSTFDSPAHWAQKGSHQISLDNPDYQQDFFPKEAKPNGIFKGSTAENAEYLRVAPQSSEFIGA
The subject of another data set is PDGFR. Nature of the data set: Kinome panel, PDGFR. Format: biochemical. The conditions noted are these: tested at 1 μM.
The target in another data set is KIT (Homo sapiens, UniProt P10721). In words: Kinome panel, KIT. Format: biochemical. The conditions noted are these: tested at 1 μM.
KIT, sequence (P10721 26-976, species assumed): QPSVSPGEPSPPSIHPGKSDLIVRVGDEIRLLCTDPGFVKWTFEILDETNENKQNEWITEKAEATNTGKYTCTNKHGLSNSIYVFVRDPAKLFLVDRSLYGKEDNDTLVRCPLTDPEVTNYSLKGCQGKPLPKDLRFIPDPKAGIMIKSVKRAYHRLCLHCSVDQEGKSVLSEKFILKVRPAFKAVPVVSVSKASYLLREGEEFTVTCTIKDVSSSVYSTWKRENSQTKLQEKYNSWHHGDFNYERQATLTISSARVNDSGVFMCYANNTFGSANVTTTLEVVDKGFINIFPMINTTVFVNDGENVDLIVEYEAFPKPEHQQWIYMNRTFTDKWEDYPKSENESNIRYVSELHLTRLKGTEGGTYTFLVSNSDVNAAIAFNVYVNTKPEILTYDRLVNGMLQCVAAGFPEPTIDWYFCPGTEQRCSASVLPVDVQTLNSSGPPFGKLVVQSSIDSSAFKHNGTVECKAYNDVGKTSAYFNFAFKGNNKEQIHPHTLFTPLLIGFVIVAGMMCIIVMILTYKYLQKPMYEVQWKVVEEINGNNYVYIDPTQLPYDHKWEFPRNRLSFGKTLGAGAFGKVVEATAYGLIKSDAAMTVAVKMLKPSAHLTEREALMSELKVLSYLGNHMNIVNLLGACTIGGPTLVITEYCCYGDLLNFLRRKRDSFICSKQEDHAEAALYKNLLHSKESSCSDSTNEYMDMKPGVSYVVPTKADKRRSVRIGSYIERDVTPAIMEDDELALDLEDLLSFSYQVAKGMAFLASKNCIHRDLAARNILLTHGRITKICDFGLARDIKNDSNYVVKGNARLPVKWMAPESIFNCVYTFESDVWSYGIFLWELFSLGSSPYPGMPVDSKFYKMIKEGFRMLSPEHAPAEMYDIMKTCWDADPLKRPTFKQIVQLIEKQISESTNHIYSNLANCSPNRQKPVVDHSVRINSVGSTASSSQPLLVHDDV
For data set [2], the target named is T1, GRK5. In words: Kinome panel, GRK5. The class given is biochemical. The following applies: tested at 1 μM.
Target sequence in this assay (P34947 whole entry, species assumed): as the sequence (P34947 whole entry) above
The next data set deals with GRK5 (Cys474) (Homo sapiens, UniProt P34947). In words: Intact protein MS, covalent labelling of GRK5. Format: binding.
GRK5 (Cys474), sequence (P34947 whole entry): as above
A further data set deals with kinome. Nature of the data set: Kinome-wide selectivity panel. The conditions noted are these: tested at 10 nM, in relation to 100 nM and 1 μM panels. Format: biochemical.
The next data set deals with PKA (Homo sapiens, UniProt P17612). In words: PKA inhibition assay (ADP-Glo). The class given is biochemical. Here is the method: The PKA inhibition assays were performed with the ADP-Glo system (Promega Corporation) according to the manufactory's instruction. […] After the initial reaction, ADP-Glo reagent was added to the reaction and allowed to incubate for an additional 40 min. Lastly, the kinase detection reagent was added and allowed to incubate for 30 min, and the luminescence was measured with a FlexStation 3 Multi-mode Microplate Reader (Molecular Devices). All data was analyzed in the same way as GRK inhibition assay. Experiments were performed three times in duplicate.
Standard control compounds are run during each assay to assess consistency across time, experimenters, and subtle changes in assay conditions that are sometimes required to keep some of the compounds soluble and disperse (such as through addition of DDM or 3% DMSO). Paroxetine were used as controls for GRK2 and PKA, and CCG215022 for GRK5.
(In ADP-Glo the light output rises with the ADP produced.)

Data set [3] can be described thus: Thermodynamic solubility (Analiza Inc.). Format: physicochemical. The following applies: Water; for pH After Assay: solubility assay; for solubility thermodynamic: thermodynamic from solid, n=1. The source says: Experimental data collected by Analiza Inc. Experimental values represent an average of n=1 experiments.
A short description of data set [4]: Metabolic stability in human liver microsomes. The following applies: 4-fluoro pendant added to phenyl ring. The class given is in vitro ADME.
[5] abbreviates: read-out: GRK2 IC50, Table 1, μM ± SD.
The mark [6] stands for this setting: intact protein MS, 30 min incubation.
Setting [7] is: intact protein MS, incubation time not stated.
The mark [8] stands for this setting: read-out: GRK2 IC50, Table 2, μM ± SD.

As to `C=CCCNC(=O)c1c(C)[nH]c(/C=C2\C(=O)Nc3ccc(C(=O)N[C@H](C)c4ccccc4)cc32)c1C` [Compound 5f, (R,Z)-3-((4-(but-3-en-1-ylcarbamoyl)-3,5-dimethyl-1H-pyrrol-2-yl)methylene)-2-oxo-N-(1-phenylethyl)indoline-5-carboxamide], the IC50 worked out at 1.9 ± 0.05 µM against GRK5 [1] and 630 ± 200 µM on bovine GRK2 (setting [5]). Further, the GRK2/GRK5 at GRK5 [1] (Table 1, ratio of IC50 values) was determined as 330.
`C#CCNC(=O)c1c(C)[nH]c(/C=C2\C(=O)Nc3ccc(C(=O)N[C@H](C)c4ccccc4)cc32)c1C` [Compound 5c, (R,Z)-3-((3,5-dimethyl-4-(prop-2-yn-1-ylcarbamoyl)-1H-pyrrol-2-yl)methylene)-2-oxo-N-(1-phenylethyl)indoline-5-carboxamide]: the “inhibition of FGFR1/2” value in the data set on FGFR1/2 is on record as 92-98%. Besides, the inhibition at 1 µM is 94% on GRK6 and 17% against EGFR. Further, the IC50 at bovine GRK2 (setting [5]) is 44 ± 40 µM. The “inhibition of PDGFR” value in the data set with PDGFR is 99-100%.
For `Cc1[nH]c(/C=C2\C(=O)Nc3ccc(C(=O)N[C@H](C)c4ccccc4)cc32)c(C)c1NC(=O)CBr` [Compound 9g, (R,Z)-3-((4-(2-bromoacetamido)-3,5-dimethyl-1H-pyrrol-2-yl)methylene)-2-oxo-N-(1-phenylethyl)indoline-5-carboxamide], the inhibition at 1 µM turned out to be 84% on KIT, 93% on GRK5 [2], 97% against GRK6 and 17% against EGFR. Besides, the “fraction of GRK5 labelled” value on GRK5 (Cys474) (setting [6]) was determined as 50%. Moreover, the “covalent labelling of GRK5” value at GRK5 (Cys474) (setting [7]) was “able to label GRK5 at Cys474; also recorded: able to form a covalent interaction”. For the same compound, the “inhibition of FGFR1/2” value in the data set on FGFR1/2 is 94-98%. Besides, in the data set on kinome, the kinome-wide selectivity result is “far more selective across the kinome”. Besides, the “selectivity for GRK5 over GRK2” value at GRK5 [1] was 1400 fold. Also, the GRK2/GRK5 on GRK5 [1] (Table 1, ratio of IC50 values) is reported as 1400. Moreover, the IC50 on GRK5 [1] (read-out: GRK5 IC50) was 0.0086 µM; at PKA (Table 1, μM ± SD) it was over 250 µM; at bovine GRK2 (setting [5]), 12 ± 20 µM. In addition, in the data set with PDGFR, the “inhibition of PDGFR” value was found to be 99%.
In the case of `Cc1[nH]c(/C=C2\C(=O)Nc3ccc(C(=O)N[C@@H](c4ccccc4)C(C)C)cc32)c(C)c1NC(=O)CCl` [Compound 9r, (R,Z)-3-((4-(2-chloroacetamido)-3,5-dimethyl-1H-pyrrol-2-yl)methylene)-N-(2-methyl-1-phenylpropyl)-2-oxoindoline-5-carboxamide], at GRK5 (Cys474) (intact MS, overnight / 8 hours), the “covalent labelling of GRK5” value was “partial labelling”. Moreover, the GRK2/GRK5 on GRK5 [1] (Table 2, ratio of IC50 values) amounted to 15. Besides, the IC50 against bovine GRK2 stood at 190 ± 70 µM.
As for `Cc1[nH]c(/C=C2\C(=O)Nc3ccc(C(=O)N[C@H](C)c4ccc(F)cc4)cc32)c(C)c1NC(=O)CCl` [Compound 9j, (R,Z)-3-((4-(2-chloroacetamido)-3,5-dimethyl-1H-pyrrol-2-yl)methylene)-N-(1-(4-fluorophenyl)ethyl)-2-oxoindoline-5-carboxamide], the “covalent labelling of GRK5” value on GRK5 (Cys474) (setting [6]) is listed as “form a covalent interaction with Cys474; also recorded: fully labels GRK5”; on GRK5 (Cys474) (setting [7]), “able to form a covalent interaction”. For the same compound, the “pH After Assay” value in data set [3] is recorded as 3. In addition, the thermodynamic solubility in data set [3] was 90.7 µM and 44.8 µg/mL. Also, the IC50 is over 250 µM on PKA (Table 2, μM ± SD) and 4.8 ± 3 µM on bovine GRK2 (setting [8]). Further, the “increase of stability in HLMs” value in data set [4] is recorded as 1.4 fold.
Regarding `Cc1[nH]c(/C=C2\C(=O)Nc3ccc(C(=O)NCc4ccccc4)cc32)c(C)c1NC(=O)CCl` [Compound 9q, (Z)—N-benzyl-3-((4-(2-chloroacetamido)-3,5-dimethyl-1H-pyrrol-2-yl)methylene)-2-oxoindoline-5-carboxamide], at GRK5 (Cys474) (intact MS, overnight / 8 hours), the “covalent labelling of GRK5” value is on record as “partial labelling”. Besides, the IC50 is over 250 µM against PKA (Table 2, μM ± SD) and 13 ± 3 µM at bovine GRK2 (setting [8]).
Consider `Cc1cccc([C@@H](C)NC(=O)c2ccc3c(c2)/C(=C/c2[nH]c(C)c(NC(=O)CCl)c2C)C(=O)N3)c1` [Compound 9i, (R,Z)-3-((4-(2-chloroacetamido)-3,5-dimethyl-1H-pyrrol-2-yl)methylene)-2-oxo-N-(1-(m-tolyl)ethyl)indoline-5-carboxamide], for which the GRK2/GRK5 on GRK5 [1] (Table 2, ratio of IC50 values) was determined as 360. Further, the 50% inhibitory concentration (IC50) was over 250 µM against PKA (Table 2, μM ± SD) and 11 ± 6 µM on bovine GRK2 (setting [8]).
As to `Cc1ccc([C@@H](C)NC(=O)c2ccc3c(c2)/C(=C/c2[nH]c(C)c(NC(=O)CCl)c2C)C(=O)N3)cc1` [Compound 9n, (R,Z)-3-((4-(2-chloroacetamido)-3,5-dimethyl-1H-pyrrol-2-yl)methylene)-2-oxo-N-(1-(p-tolyl)ethyl)indoline-5-carboxamide], in data set [3], the “pH After Assay” value came out at 2.5; the solubility (thermodynamic) is 252 µM and 124 µg/mL. Besides, the GRK2/GRK5 on GRK5 [1] (Table 2, ratio of IC50 values) is given as 3. The IC50 at bovine GRK2 (setting [8]) amounted to 2.1 ± 1 µM.
For `Cc1[nH]c(/C=C2\C(=O)Nc3ccc(C(=O)NC(C)(C)c4ccccc4)cc32)c(C)c1NC(=O)CCl` [Compound 9s, (Z)-3-((4-(2-chloroacetamido)-3,5-dimethyl-1H-pyrrol-2-yl)methylene)-2-oxo-N-(2-phenylpropan-2-yl)indoline-5-carboxamide], the “covalent labelling of GRK5” value at GRK5 (Cys474) (intact MS, overnight / 8 hours) was “completes labelling of GRK5”. The GRK2/GRK5 at GRK5 [1] (Table 2, ratio of IC50 values) worked out at 260. The IC50 against PKA (Table 2, μM ± SD) was over 250 µM.
As for `CC#CC(=O)Nc1c(C)[nH]c(/C=C2\C(=O)Nc3ccc(C(=O)N[C@H](C)c4ccccc4)cc32)c1C` [Compound 9a, (R,Z)-3-((4-(but-2-ynamido)-3,5-dimethyl-1H-pyrrol-2-yl)methylene)-2-oxo-N-(1-phenylethyl)indoline-5-carboxamide], on GRK5 (Cys474) (setting [7]), the “covalent labelling of GRK5” value was “did not show any covalent engagement”. At GRK5 [1], the “potency / affinity against GRK5 in words” value is given as “low μM potency”. Also, the GRK2/GRK5 on GRK5 [1] (Table 1, ratio of IC50 values) was 61. Also, the IC50 on GRK5 [1] (read-out: GRK5 IC50, Table 1, μM ± SD) was determined as 2.5 ± 0.8 µM; on bovine GRK2 (setting [5]), 150 ± 30 µM.
